Results as given in patent US20220387469A1, “METHOD OF UTILIZING ULTRAFINE BUBBLES” (Shiseido Company, Ltd., priority 2019, published 2022).

Assay: Permeation of adenosine into stratum corneum of forearm skin (tape peel, LC-MS quantification)
Type: in vivo, human
Details: forearm of a test subject, Formulation 1 that contains ultrafine bubbles (aerosol spray, actuator D391, nitrogen 0.9 MPa) applied first, then Formulation 2 (0.2% adenosine) applied for 10 minutes, 1 cm by 1 cm stratum corneum
Text: In order to provide Formulation 1 that contains ultrafine bubbles onto the skin, the aerosol container 10 was filled with Formulation 1, and the interior pressure was set to 0.9 MPa with nitrogen gas. The actuator “D391” having a flow rate adjusting mechanism produced by K. K. Mitani Valves was applied as the spray actuator 11.
That is, a liquid which was sprayed from the aerosol container 10 and Formulation 1 as an undiluted liquid were applied to two different locations on a forearm of a test subject. Thereafter, Formulation 2 that contains adenosine was applied onto each of the two locations for 10 minutes. Next, 1 cm by 1 cm squares of stratum corneum were peeled from the locations onto which the formulations were applied, stratum corneum components were extracted, and the amounts of adenosine were quantitatively analyzed by the LC-MS method (Liquid Chromatography Mass Spectrometry method).

## Nc1ncnc2c1ncn2[C@@H]1O[C@H](CO)[C@@H](O)[C@H]1O [adenosine]
  amount of adenosine within the stratum corneum, relative to the case that Formulation 1 that did not contain ultrafine bubbles was applied: 1.6 times
